In ChEMBL document CHEMBL5614376, “Discovery of MT-1207: A Novel, Potent Multitarget Inhibitor as a Promising Clinical Candidate for the Treatment of Hypertension” (J Med Chem, 2024):

Columns and labels:
[1] = Plasma protein binding in Sprague-Dawley rat at 0.1 uM incubated for 30 mins; format: ADME, cell-free; conditions: read-out: PPB (converted)
[2] = Plasma protein binding in Cynomolgus monkey at 1 uM incubated for 30 mins; format: ADME, cell-free, Macaca fascicularis; conditions: read-out: PPB (converted)
[3] = Metabolic stability in macaque liver microsomes assessed as drug metabolism at 10 umol/L incubated upto 120 mins in presence of NADPH by LC-MS/MS analysis; format: ADME, Microsome; conditions: macaca, 2 h, 10 µM, dose 10 µmol/L
[4] = Metabolic stability in rat liver microsomes assessed as compound remaining at 10 umol/L incubated upto 120 mins in presence of NADPH by LC-MS/MS analysis; format: ADME, Microsome; conditions: dose 10 µmol/L, read-out: Stability
[5] = Metabolic stability in macaque liver microsomes assessed as compound remaining at 10 umol/L incubated upto 120 mins in presence of NADPH by LC-MS/MS analysis; format: ADME, Microsome; conditions: macaca, dose 10 µmol/L, read-out: Stability
[6] = Cmax in Sprague-Dawley rat at 1 mg/kg, iv measured for 24 hrs by UPLC/MS/MS analysis; format: ADME, organism-based; conditions: in vivo
[7] = AUC (0 to t) in Sprague-Dawley rat at 1 mg/kg, iv measured for 24 hrs by UPLC/MS/MS analysis; format: ADME, organism-based; conditions: in vivo
[8] = Apparent oral clearance in Sprague-Dawley rat at 1 mg/kg, iv measured for 24 hrs by UPLC/MS/MS analysis; format: ADME, organism-based; conditions: in vivo
[9] = AUC (0 to t) in Sprague-Dawley rat at 1 mg/kg, po measured for 24 hrs by UPLC/MS/MS analysis; format: ADME, organism-based; conditions: in vivo
[10] = Cmax in Sprague-Dawley rat at 3 mg/kg, po measured for 24 hrs by UPLC/MS/MS analysis; format: ADME, organism-based; conditions: in vivo
[11] = Tmax in Sprague-Dawley rat at 9 mg/kg, po measured for 24 hrs by UPLC/MS/MS analysis; format: ADME, organism-based; conditions: in vivo
[12] = Cmax in Sprague-Dawley rat at 9 mg/kg, po measured for 24 hrs by UPLC/MS/MS analysis; format: ADME, organism-based; conditions: in vivo
[13] = system: Rattus norvegicus; experiment: Antihypertensive activity in 2K2C renovascular hypertensive Sprague-Dawley rat model assessed as systolic blood pressure at 10 mg/kg, po measured after 9 weeks (Rvb ~ 202 mmHg); format: functional
[14] = system: Rattus norvegicus; experiment: Effect on postural hypotension in Sprague-Dawley rat assessed as change in systolic blood pressure at 5 mg/kg, po treated for >30 mins followed by induction of postural hypotension measured 3 secs after postural change (reference value: 124 +/- 10 mmHg); format: functional; conditions: time > 30.05 min, 0.5008 h
[15] = system: Rattus norvegicus; experiment: Effect on postural hypotension in Sprague-Dawley rat assessed as change in systolic blood pressure at 2.5 mg/kg, po treated for >30 mins followed by induction of postural hypotension measured 5 secs after postural change (reference value: 126 +/- 12 mmHg); format: functional; conditions: time > 30.08 min, 0.5013 h
[16] = system: Rattus norvegicus; experiment: Effect on postural hypotension in Sprague-Dawley rat assessed as change in systolic blood pressure at 5 mg/kg, po treated for >30 mins followed by induction of postural hypotension measured 5 secs after postural change (reference value: 126 +/- 12 mmHg); format: functional; conditions: time > 30.08 min, 0.5013 h
[17] = system: Rattus norvegicus; experiment: Effect on postural hypotension in Sprague-Dawley rat assessed as change in systolic blood pressure at 5 mg/kg, po treated for >30 mins followed by induction of postural hypotension measured 10 secs after postural change (reference value: 127 +/- 12 mmHg); format: functional; conditions: time > 30.17 min, 0.5028 h
[18] = system: Rattus norvegicus; experiment: Effect on postural hypotension in Sprague-Dawley rat assessed as change in systolic blood pressure at 10 mg/kg, po treated for >30 mins followed by induction of postural hypotension measured 10 secs after postural change (reference value: 127 +/- 12 mmHg); format: functional; conditions: time > 30.17 min, 0.5028 h
[19] = system: Rattus norvegicus; experiment: Effect on postural hypotension in Sprague-Dawley rat assessed as change in systolic blood pressure at 10 mg/kg, po treated for >30 mins followed by induction of postural hypotension measured 60 secs after postural change (reference value: 127 +/- 10 mmHg); format: functional; conditions: time > 31 min
[20] = Acute toxicity in Sprague-Dawley rat assessed as change in morphology of animal at 250 to 1000 mg/kg, po single administration measured for 14 days; format: organism-based; conditions: in vivo, 336 h, dose 250-1000 mg/kg, time 14 day
[21] = Acute toxicity in Sprague-Dawley rat assessed as drug tolerance at 250 to 1000 mg/kg, po single administration measured for 14 days; format: organism-based; conditions: in vivo, 336 h, dose 250-1000 mg/kg, time 14 day
[22] = Toxicity in male Sprague-Dawley rat assessed as reduction in body weight at 30 mg/kg, po qd treated for 11 days consecutively; format: organism-based; design: scale not given: the % may be the effect or the level left; conditions: in vivo, 264 h, time 11 day
[23] = Toxicity in male Sprague-Dawley rat assessed as change in body weight at 30 mg/kg, po qd treated for 13 weeks consecutively measured post-cessation of treatment; format: organism-based; conditions: in vivo, 2184 h
[24] = Tmax in female Sprague-Dawley rat at 10 mg/kg, po measured on day 1 by UP/LC/MS/MS analysis; format: ADME, organism-based; conditions: in vivo, time 1 day
[25] = Tmax in female Sprague-Dawley rat at 30 mg/kg, po measured on day 1 by UP/LC/MS/MS analysis; format: ADME, organism-based; conditions: in vivo, time 1 day
[26] = Tmax in male Sprague-Dawley rat at 100 mg/kg, po measured on day 1 by UP/LC/MS/MS analysis; format: ADME, organism-based; conditions: in vivo, time 1 day
[27] = Cmax in male Sprague-Dawley rat at 10 mg/kg, po measured on day 1 by UP/LC/MS/MS analysis; format: ADME, organism-based; conditions: in vivo, time 1 day
[28] = Cmax in male Sprague-Dawley rat at 100 mg/kg, po measured on day 1 by UP/LC/MS/MS analysis; format: ADME, organism-based; conditions: in vivo, time 1 day
[29] = AUC (0 to t) in male Sprague-Dawley rat at 10 mg/kg, po measured on day 1 by UP/LC/MS/MS analysis; format: ADME, organism-based; conditions: in vivo, time 1 day
[30] = AUC (0 to t) in female Sprague-Dawley rat at 10 mg/kg, po measured on day 1 by UP/LC/MS/MS analysis; format: ADME, organism-based; conditions: in vivo, time 1 day
[31] = Tmax in female Sprague-Dawley rat at 10 mg/kg, po qd treated for 13 weeks consecutively measured after recovery period on day 91 by UP/LC/MS/MS analysis; format: ADME, organism-based; conditions: in vivo, time 91 day
[32] = Tmax in male Sprague-Dawley rat at 30 mg/kg, po qd treated for 13 weeks consecutively measured after recovery period on day 91 by UP/LC/MS/MS analysis; format: ADME, organism-based; conditions: in vivo, time 91 day
[33] = Tmax in female Sprague-Dawley rat at 30 mg/kg, po qd treated for 13 weeks consecutively measured after recovery period on day 91 by UP/LC/MS/MS analysis; format: ADME, organism-based; conditions: in vivo, time 91 day
[34] = Tmax in male Sprague-Dawley rat at 100 mg/kg, po qd treated for 13 weeks consecutively measured after recovery period on day 91 by UP/LC/MS/MS analysis; format: ADME, organism-based; conditions: in vivo, time 91 day
[35] = Cmax in male Sprague-Dawley rat at 10 mg/kg, po qd treated for 13 weeks consecutively measured after recovery period on day 91 by UP/LC/MS/MS analysis; format: ADME, organism-based; conditions: in vivo, time 91 day
[36] = AUC (0 to t) in male Sprague-Dawley rat at 100 mg/kg, po qd treated for 13 weeks consecutively measured after recovery period on day 91 by UP/LC/MS/MS analysis; format: ADME, organism-based; conditions: in vivo, time 91 day

## Cl.c1ccc2c(c1)nnn2CCCCN1CCN(c2nsc3ccccc23)CC1
[1]
  fraction unbound at 0.5 h, 0.1 µM: 0.022
[2]
  fraction unbound at 0.5 h, 1 µM: 0.006
[3]
  Drug metabolism: Metabolite_Detected
[4]
  remaining at 2 h, 10 µM: 21.1%
[5]
  remaining at 2 h, 10 µM: 1.5%
[6]
  Cmax: 468 ng/mL
[7]
  AUC(0-t) at 24 h: 440 ng·h/mL
[8]
  CL/F: 25 L/h
[9]
  AUC(0-t) at 24 h: 51.7 ng·h/mL
[10]
  Cmax: 85.7 ng/mL
[11]
  Tmax: 0.65 h
[12]
  Cmax: 186 ng/mL
[13]
  Activity: 169 mmHg
[14]
  Activity: 80 mmHg
[15]
  Activity: 89 mmHg
[16]
  Activity: 79 mmHg
[17]
  Activity: 82 mmHg
[18]
  Activity: 84 mmHg
[19]
  Activity: 85 mmHg
[20]
  Activity: Non-Toxic
[21]
  Activity: Non-Toxic
[22]
  Activity: ~ 3.3%
[23]
  Activity: Non-Toxic
[24]
  Tmax: 1.3 h
[25]
  Tmax: 1 h
[26]
  Tmax: 1.3 h
[27]
  Cmax: 19.2 ng/mL
[28]
  Cmax: 347 ng/mL
[29]
  AUC(0-t) at 24 h: 44.5 ng·h/mL
[30]
  AUC(0-t) at 24 h: 344 ng·h/mL
[31]
  Tmax: 1 h
[32]
  Tmax: 1 h
[33]
  Tmax: 1 h
[34]
  Tmax: 1.3 h
[35]
  Cmax: 36.2 ng/mL
[36]
  AUC(0-t) at 2184 h: 4790 ng·h/mL
